Here are results for four molecules from patent US11519911B2, “ALX receptor ligands define a biochemical endotype for inflammation-based diseases” (THE BRIGHAM AND WOMEN'S HOSPITAL, INC., priority 2017, dated 2022).

“Also recorded” adds a separate entry of the source.

Assay [1] concerns the target T1, ALX/FPR2 receptors (ALX) (Homo sapiens, UniProt P25090).
T1 sequence (P25090 1-351): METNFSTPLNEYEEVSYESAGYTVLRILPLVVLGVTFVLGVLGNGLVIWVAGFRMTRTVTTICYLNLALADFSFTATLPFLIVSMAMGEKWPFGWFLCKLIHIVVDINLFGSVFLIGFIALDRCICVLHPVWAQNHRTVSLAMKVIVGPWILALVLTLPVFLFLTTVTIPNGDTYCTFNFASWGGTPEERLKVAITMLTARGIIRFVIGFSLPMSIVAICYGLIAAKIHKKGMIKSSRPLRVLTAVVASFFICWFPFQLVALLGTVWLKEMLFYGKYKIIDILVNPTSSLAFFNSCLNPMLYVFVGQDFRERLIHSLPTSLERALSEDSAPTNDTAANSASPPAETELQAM
As to the kind of experiment: ALX-dependent in vitro reporter assay: IL-8 production by A549 cells expressing human ALX receptor (ELISA). The class given is cell-based. Also noted: expressed in transfected cells; host or cells: A549 human lung epithelial cells, stably transfected. On the procedure: FIG. 6 A-D. SAA and 15-epi-LXA4 signaling via ALX receptors regulates production of the neutrophil chemoattractant IL-8 A549 human epithelial cells expressing human ALX receptors (A549^hALX) were exposed to BALF from HD, NSA, or SA subjects (24 h, 37° C., 5% CO2) and IL-8 levels were measured in the cell-free supernatant by ELISA (see Methods). (A) Mean levels of LXA4, 15-epi-LXA4 and SAA in BALF from n=15 subjects used for A549^hALX cell incubations are shown in stacked bar graphs and the relative proportions are noted in pie charts. (B) IL-8 production by A549^hALX cells was measured after incubation with saline control or SAA (2.5 ng/ml or 10 ng/ml) for 24 hours. (C) IL-8 production by A549^hALX cells was measured after 24 hours of exposure to BALF from HD (n=3), NSA (n=6) or SA (n=5) and is expressed as an increase relative to saline controls. Incubations with BALF without an increase in IL-8 production relative to saline control were assigned a value of zero. (D) A549^hALX epithelial cells were exposed to BALF from subjects with endogenous levels that were LXA4^highSAA^low (n=5) or LXA4^lowSAA^high (n=6) followed by exposure to exogenous 15-epi-LXA4 (100 nM). % Inhibition of IL-8 production after 15-epi-LXA4 exposure was calculated. *p<0.05, ****p<0.001 by (B) one-way ANOVA (C) Kruskal-Wallis test and (D) Mann-Whitney test. ALX, airway lipoxin A4 receptor; LXA4, lipoxin A4; 15-epi-LXA4, 15-epimer lipoxin A4; SAA, serum amyloid A; HD, healthy donors; NSA, non-severe asthma; SA, severe asthma; IL-8, interleukin-8; BALF, bronchoalveolar lavage fluid.
To determine the functional relationship for these ALX receptor ligands, we next turned to an ALX-dependent in vitro reporter assay that we have previously qualified in chronic obstructive pulmonary disease (18). A549 lung epithelial cells were stably transfected to express the human ALX/FPR2 receptor (hALX). […]
A549 transfected to stably express the human ALX receptor were used (as in (18)). […] IL-8 levels in the supernatants were measured by ELISA (R&D). […]
In general terms: Reporter assays use an easily measured gene product as a stand-in for the process of interest.

For assay [2], the target named is T1, ALX/FPR2 receptors (ALX). To be noted: high affinity cognate receptors; reference (16); cited from earlier work.
A short description of assay [3]: BALF ALX ligand levels after a single dose of intramuscular triamcinolone in asthma subjects. The class given is in vivo, human. Particulars: measured 3 to 6 weeks after, SA or NSA subjects. As for the experimental part: Subjects 13 years of age and older with asthma and healthy control subjects were recruited between November 2012 and February 2015 by seven geographically dispersed, research centers in the USA. European Respiratory Society/American Thoracic Society guidelines were used to categorize subjects as SA or NSA (48). Control subjects were individuals who reported general health and were non-smokers with no history of lung disease, atopic disease or allergic rhinitis. BAL was performed with three 50 mL aliquots of warm saline, and BALF were recovered by hand suction. Subjects received intramuscular triamcinolone (1 mg/kg up to a maximum dose of 40 mg) and some subjects agreed to undergo a second bronchoscopy 3 to 6 weeks later and BAL samples were collected in the same manner. BAL cells were enumerated and differential leukocyte counts determined. Cell-free BALF supernatant was divided into several aliquots. One aliquot of BALF (1 ml) was directly mixed with iced methanol (2 ml, for 1:2, vol/vol) before storing at −80° C. The other aliquots were directly stored at −80° C. […]
LXA4 and 15-epi-LXA4 levels in the BALF were measured by ELISA (Neogen, Lexington, Ky.). […] SAA and ANXA1 levels were measured by ELISA in aliquots of BALF stored in the absence of methanol (SAA: Abazyme, Needham, Mass.; ANXA1: Cloud-Clone, Houston, Tex.). […]

What is called Kd is a measure of binding affinity in units of concentration.

With 15-epimer lipoxin A4 [15-epi-LXA4], the “Inhibition of IL-8 production by A549^hALX cells conditioned with BALF” value at ALX/FPR2 receptors (ALX) [1] (exogenous 15-epi-LXA4 100 nM, cells exposed to BALF) is reported as “inhibited A549^hALX cell IL-8 production”. Moreover, the “Inhibition of IL-8 production by A549^hALX cells conditioned with BALF from LXA4^lowSAA^high subjects” value at ALX/FPR2 receptors (ALX) [1] (exogenous 15-epi-LXA4 100 nM, compared with LXA4^highSAA^low BALF) is recorded as “maximal inhibition of IL-8 production”. Moreover, the Kd at ALX/FPR2 receptors (ALX) [2] was approximately 1 nM. Regarding `CCCCC[C@H](O)/C=C/C=C\C=C\C=C\[C@@H](O)[C@@H](O)CCCC(=O)O` [LXA4, Lipoxin A4], the Kd at ALX/FPR2 receptors (ALX) [2] is approximately 1 nM. In the case of `C[C@]12C=CC(=O)C=C1CC[C@H]1[C@@H]3C[C@@H](O)[C@](O)(C(=O)CO)[C@@]3(C)C[C@H](O)[C@@]12F` [triamcinolone], the “Change in BALF levels of LXA4, 15-epi LXA4 and SAA” value in assay [3] was “did not result in discernible changes; also recorded: not significantly altered”.

B1: SAA: acute phase protein, pro-inflammatory ALX peptide ligand; recombinant human SAA (Peprotech) (protein, UniProt P0DJI8 19-122, looked up)
Serum amyloid A-1 protein: RSFFSFLGEAFDGARDMWRAYSDMREANYIGSDKYFHARGNYDAAKRGPGGAWAAEVITDARENIQRFFGHGAEDSLADQAANEWGRSGKDPNHFRPAGLPEKY
With B1, the “IL-8 production by A549^hALX cells” value with ALX/FPR2 receptors (ALX) [1] (recombinant human SAA 0-10 ng/ml, 24 h, vs saline control) is listed as “concentration-dependent (0-10 ng/ml) increase in IL-8 production”.
